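Results reflect a 48-hour exposure of cells in 96-well plates to compound at five concentrations. At the TGI there is no net growth.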
Assays:
Assay in all cases: NCI-60 cell line screen, 48 h
CCRF-CEM leukemia = system: CCRF-CEM leukemia
HCT-116 colon = system: HCT-116 colon
HCT-15 colon = system: HCT-15 colon
MOLT-4 leukemia = system: MOLT-4 leukemia
NCI-H522 lung = system: NCI-H522 lung
OVCAR-5 ovarian = system: OVCAR-5 ovarian
SK-MEL-28 melanoma = system: SK-MEL-28 melanoma
TK-10 renal = system: TK-10 renal
A498 renal = system: A498 renal
DU-145 prostate = system: DU-145 prostate

Row | Compound | TGI (CCRF-CEM leukemia) | TGI (HCT-116 colon) | TGI (HCT-15 colon) | TGI (MOLT-4 leukemia) | TGI (NCI-H522 lung) | TGI (OVCAR-5 ovarian) | TGI (SK-MEL-28 melanoma) | TGI (TK-10 renal) | TGI (A498 renal) | TGI (DU-145 prostate)
1 | COc1ccc(C2C(Cl)C(=O)N2NC(=O)Cc2ccccc2)cc1OC (centres undefined) | > 100 µM | > 100 µM | > 100 µM | > 100 µM | > 100 µM | > 100 µM | > 100 µM | > 100 µM |  | 
2 | C=CCC(SC)C1=C(C)C(=O)c2ccccc21 (centres undefined) | > 10 µM |  | > 10 µM | > 10 µM |  | > 10 µM | > 10 µM | > 10 µM | > 10 µM | > 10 µM
3 | CSC1=C(C(=O)Nc2ccccc2)C(N)=NC1=O | > 100 µM | > 100 µM | > 100 µM | > 100 µM | > 100 µM |  | > 100 µM | > 100 µM | > 100 µM | > 100 µM
4 | C=CC1(c2ccc(OC)cc2)OCCCO1 | > 100 µM | > 100 µM | > 100 µM | > 100 µM | > 100 µM | > 100 µM | > 100 µM | > 100 µM |  | > 100 µM
5 | O=S(=O)(/N=C(\NO)Nc1ccc(Cl)cc1)c1ccc(-c2ccccn2)s1 | > 100 µM | > 100 µM | > 100 µM | > 100 µM | 31.8 µM | > 100 µM | > 100 µM | > 100 µM |  | > 100 µM
6 | Nc1ccc(-c2nc3ccccc3s2)cc1Br | > 100 µM |  | > 100 µM | > 100 µM | > 100 µM | > 100 µM | > 100 µM | > 100 µM | > 32.5 µM | > 100 µM
7 | c1ccc(C2[C@@H]3CCCc4ccccc4C3=NN2c2ccccc2)cc1 (some centres undefined) | > 100 µM | > 100 µM | > 100 µM | > 100 µM | > 100 µM | > 100 µM | > 100 µM | > 100 µM | > 100 µM | 
8 | CCN(CC)CCNc1ccc2ncn3c4cc(=O)ccc4c(O)c1c23 | 16.8 µM | 15.5 µM | 17 µM | 6.15 µM | 5.36 µM | 32.5 µM | 16.9 µM | 47.1 µM | 14 µM | 
9 | COc1ccc(N2C(=O)C3CC4=CC(=O)C[C@H]4[C@H]32)cc1 (some centres undefined) |  | > 100 µM | > 100 µM | > 100 µM |  | > 100 µM | > 100 µM | > 100 µM | > 100 µM | > 100 µM
10 | Cc1sc2nc3n(c(=O)c2c1C)N=C(c1ccc([N+](=O)[O-])cc1)CS3 | > 100 µM | > 100 µM | > 100 µM | > 100 µM | > 100 µM | > 100 µM | > 100 µM |  | > 100 µM | > 100 µM
11 | C=CCN1CCC2(CC1)NC(=O)c1ccccc1O2 | > 100 µM | > 100 µM | > 100 µM | > 100 µM | > 100 µM | > 100 µM | > 100 µM | > 100 µM |  | > 100 µM
12 | CCN(CC)CCC(=O)c1ccc(Oc2ccc(F)cc2)cc1 | 50.1 µM | 30.3 µM | 36.7 µM | 51.3 µM |  | 35 µM | 30.2 µM | 31.7 µM |  | 53.1 µM

Reference: PubChem BioAssay (NCI)
